Assay results as given in US7135473B2, “Cyclic diamine compound with condensed-ring groups” (Kowa Co., Ltd., priority 2001, dated 2006).

Legend:
[1] = tested on: U937 cells adhered to HUVEC stimulated by IL-1β; experiment: Inhibitory effect on cell adhesion, stimulation by IL-1β; assay type: cell-based; conditions: Homo sapiens, compound at 1 μM, read-out: Inhibitory activity against cell adhesion, Percent inhibition (%), Stimulation by IL-1β
Procedure: (§1) This test was conducted by reference to the method of Ross et al. (J. Biol. Chem., 267, 8537–8543(1992). More specifically, after human umbilical venous endothelial cells (HUVEC) were cultured on a 48-well plate to confluent growth, IL-1β or TNFα was added thereto. After culturing for 5 hours, U937, which is a human monocytic/histocytic cell fluorescence-labeled with PKH2(product of Dainippon Pharmaceutical Co., Ltd.), was added in a proportion of 1×10^6 cells per well. After the plate was left at rest at room temperature for 1 hour, unadhered U937 was washed out and lysed in 1% Triton X-100 to measure a remaining fluorescence intensity (excitation wavelength: 480 nm; measuring wavelength: 530 nm). HUVEC and U937 were cultured in EGM-2 (product of Sanko Junyaku K. K.) and 10% FCS-containing RPMI1640, respectively. Each test agent was added to HUVEC upon the addition of IL-1β or TNFα and to U937 24 hours prior to the cell adhesion test. The inhibitory activity was calculated out according to the equation [100−(C−B)/(A−B)×100(%)], wherein A is the number of U937 cells adhered to HUVEC stimulated by IL-1β or TNFα when no test agent was added, B is the number of U937 cells adhered to HUVEC not stimulated by IL-1β or TNFα when no test agent was added, and C is the number of U937 cells adhered to HUVEC stimulated by IL-1β or TNFα when the test agent was added. As control compounds, Test Compound 1 described in Japanese Patent Application Laid-Open No. 9–143075 and dilazep described in Japanese Patent Application Laid-Open No. 11–92382 were simultaneously evaluated.

[2] = tested on: U937 cells adhered to HUVEC stimulated by TNFα; experiment: Inhibitory effect on cell adhesion, stimulation by TNFα; assay type: cell-based; conditions: Homo sapiens, compound at 1 μM, read-out: Inhibitory activity against cell adhesion, Percent inhibition (%), Stimulation by TNFα
Procedure: as §1

Question: Which results are given for COc1cc2sc(CN3CCCN(Cc4cc5c(OC)c(OC)c(OC)cc5s4)CC3)cc2c(OC)c1OC [Example 41, N,N′-bis[(4,5,6-trimethoxybenzothiophen-2-yl)methyl]homopiperazine]?
Answer: inhibition at 1 µM [1]: 52%; inhibition at 1 µM [2]: 27%

Question: What does the source list for COc1cc2nc(CN3CCCN(Cc4nc5cc(OC)c(OC)c(OC)c5s4)CC3)sc2c(OC)c1OC [Example 33, N,N′-bis[(5,6,7-trimethoxybenzothiazol-2-yl)methyl]homopiperazine]?
Answer: inhibition at 1 µM [1]: 64%; inhibition at 1 µM [2]: 79%

Question: COc1cc(C(=O)OCCCN2CCCN(CCCOC(=O)c3cc(OC)c(OC)c(OC)c3)CC2)cc(OC)c1OC [Dilazep, dilazep, reference compound] was tested. Which inhibition at 1 µM [1] did it give?
Answer: The inhibition at 1 µM was 0%.

Question: What about the inhibition at 1 µM [2] of the same compound?
Answer: The inhibition at 1 µM was 12%.

Question: Which inhibition at 1 µM [1] does the source give for COc1cc2nc(CN3CCN(Cc4nc5cc(OC)c(OC)c(OC)c5s4)CC3)sc2c(OC)c1OC [Example 32, N,N′-bis[(5,6,7-trimethoxybenzothiazol-2-yl)methyl]piperazine] here?
Answer: The inhibition at 1 µM was 54%.

Question: What about the inhibition at 1 µM [2] of the same compound?
Answer: Its inhibition at 1 µM is 52%.

Question: COc1cc2cc(CCN3CCCN(CCc4ccc5c(OC)c(OC)c(OC)cc5c4)CC3)ccc2c(OC)c1OC [Example 6, N,N′-bis[2-(5,6,7-trimethoxynaphthalen-2-yl)ethyl]homopiperazine] was tested. Which inhibition at 1 µM [1] did it give?
Answer: The inhibition at 1 µM was 57%.

Question: What about the inhibition at 1 µM [2] of the same compound?
Answer: The inhibition at 1 µM was 69%.
